According to US20240360154A1, “AROYL SUBSTITUTED TRICYCLIC COMPOUND, PREPARATION METHOD THEREFOR AND USE THEREOF” (GENFLEET THERAPEUTICS (SHANGHAI) INC., priority 2020, published 2024):

Key:
BTK (C481S) = BTK (C481S) (Homo sapiens (Human), UniProt Q06187, C481S); assay: BTK C481S enzyme experiment (ADP-Glo kinase assay); assay type: biochemical; details: 10 nM BTK C481S, ATP 125 μM, Poly(Glu4, Tyr1), 90 minutes at 20° C.
Outline: (§1)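 Wild-type or C481S BTK, added as 2× solution at 10 nM, preincubated 10 min with 3-fold compound dilutions in 50 mM HEPES pH 7.5, 10 mM MgCl2, 2 mM DTT, 0.0015% Brij-35. ADP-Glo luminescence norm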

p-BTK (C481S) = p-BTK (C481S) (Homo sapiens (Human), UniProt Q06187, C481S); assay: p-BTK cell experiment, HEK293 transfected with C481S-BTK plasmid (P-BTK Y223 sandwich ELISA); assay type: cell-based; details: HEK293 cells, compound cultured for two hours
Sequence of p-BTK (C481S) (Q06187 whole entry C481S): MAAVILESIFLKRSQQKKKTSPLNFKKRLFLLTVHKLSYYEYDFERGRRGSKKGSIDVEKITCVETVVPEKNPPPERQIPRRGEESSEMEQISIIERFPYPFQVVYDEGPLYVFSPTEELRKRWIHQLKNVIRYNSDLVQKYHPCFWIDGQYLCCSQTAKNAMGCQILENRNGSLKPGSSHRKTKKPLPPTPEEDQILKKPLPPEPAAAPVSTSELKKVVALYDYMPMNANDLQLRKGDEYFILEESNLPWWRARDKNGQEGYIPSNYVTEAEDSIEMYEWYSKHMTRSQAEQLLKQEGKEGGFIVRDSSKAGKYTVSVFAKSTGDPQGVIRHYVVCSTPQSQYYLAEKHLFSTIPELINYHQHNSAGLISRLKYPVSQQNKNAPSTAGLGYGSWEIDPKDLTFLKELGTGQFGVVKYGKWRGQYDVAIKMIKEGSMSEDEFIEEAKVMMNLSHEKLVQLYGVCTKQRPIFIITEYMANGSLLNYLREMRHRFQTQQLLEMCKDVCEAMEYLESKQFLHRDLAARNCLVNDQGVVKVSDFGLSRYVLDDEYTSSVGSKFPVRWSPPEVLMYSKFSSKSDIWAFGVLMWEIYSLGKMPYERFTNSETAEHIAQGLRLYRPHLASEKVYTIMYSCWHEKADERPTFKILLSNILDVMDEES
Method: (§2) Day 1: HEK293 cells (ADDEXBIO, T0011001) at logarithmic growth phase were taken, digested with enzyme EDTA, collected and counted, and 2E6 cells were inoculated in a 10 cm culture dish and cultured overnight. Day 2: A mixed solution containing 6 μg of WT-BTK/C481S-BTK plasmid and 18 μL of FuGENE HD transfection reagent was prepared by using 1000 μL of Opti-MEM. After standing at room temperature for 10 minutes, the mixed solution was slowly added to the culture dish with a pipettor and cultured overnight. Day 3: The culture dish was taken out, and the cells were digested with enzyme EDTA, collected and counted, and 1E4 cells were inoculated in a 96-well cell culture plate and cultured overnight. A 3.16-fold gradient concentration stock solution of 1000× compound was prepared using DMSO, and placed at room temperature. Day 4: A prepared 1000× compound stock solution was taken, and diluted 200-fold to 5× compound stock solution with culture medium. 5× compound stock solution was added to each cell culture well with a final concentration of 1× compound stock solution and a DMSO content of 0.1%. DMSO was used as an experimental control. After the compound was added and cultured for two hours, the residual culture medium was removed. 100 μL of cell lysis buffer was added to each well, stood on ice for 30 minutes, and ultrasonically lysed with ice water for 5 minutes. After diluting the cell lysate in proportion, 80 μL of the mixture was transfer to an ELISA plate, and 80 μL of cell lysis buffer was added to the blank well. After incubating in an incubator at 37° C. for 2 hours, the plate was taken and the antibody incubation and color development termination operation were completed according to the instructions of Pathscan P-BTK (Y223) Sandwich ELISA Kit (Cell Signaling #23843 CA), and finally the OD value was read. The inhibition rate of the compound (%)=(ODcontrol−ODcompound)/(ODcontrol−ODblank)×100% was calculated. The compound gradient dilution concentration and the corresponding cell proliferation inhibition rate were fit by using Prism 8 four-parameter method, and IC50 value was calculated.

BTK = BTK (Homo sapiens (Human), UniProt Q06187); assay: BTK enzyme experiment (ADP-Glo kinase assay); assay type: biochemical; details: 10 nM BTK, ATP 125 μM, Poly(Glu4, Tyr1), 90 minutes at 20° C.; read-out: BTK(WT) IC50
Sequence of BTK (Q06187 whole entry): as the sequence (Q06187 whole entry C481S) above, with S481C counted along it
Outline: as §1

TMD-8 cells = assay: TMD-8 proliferation inhibition experiment; assay type: cell-based; details: human diffuse large B lymphoma cells, three days incubation
Outline: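 Log-phase cells seeded in 384-well plates (600 TMD-8 in RPMI 1640, 2000 OCI-LY10 in IMDM, both 10% FBS), then exposed one day later to 3-fold compound dilutions at 0.25% DMSO for three days. ADP-Glo luminescence read; inhibition versus DMSO and medium-only blank, IC50 by four-parameter fit.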

p-BTK (WT) = p-BTK (WT) (Homo sapiens (Human), UniProt Q06187); assay: p-BTK cell experiment, HEK293 transfected with WT-BTK plasmid (P-BTK Y223 sandwich ELISA); assay type: cell-based; details: HEK293 cells, compound cultured for two hours
Sequence of p-BTK (WT) (Q06187 whole entry): as the sequence (Q06187 whole entry C481S) above, with S481C counted along it
Method: as §2

Sequence of BTK (C481S) (Q06187 whole entry C481S): as the sequence (Q06187 whole entry C481S) above

IC50 (BTK (C481S)) | IC50 (p-BTK (C481S)) | IC50 (BTK) | IC50 (p-BTK (WT)) | SMILES | IC50 (TMD-8 cells; Homo sapiens, TMD8, 72 h) | IC50 (TMD-8 cells)
10.7 nM | 198 nM | 6.3 nM | 58.5 nM | COCC1(C)Nc2c(cnc3[nH]cc(C(=O)c4ccc(Oc5cc(C)ccn5)cc4Cl)c23)NC1=O (single isomer, unassigned) [Z64-1, 9-(2-chloro-4-((4-methylpyridin-2-yl)oxy)benzoyl)-2-(methoxymethyl)-2-methyl-1,2,4,7-tetrahydro-3H-pyrrolo[3′,2′:5,6]pyrido[3,4-b]pyrazin-3-one] | 194 nM | –
3.8 nM | 38.1 nM | 6.7 nM | 29.6 nM | [2H]C([2H])([2H])OC[C@]1(C)Nc2c(cnc3[nH]cc(C(=O)c4ccc(Oc5ccccc5)cc4Cl)c23)NC1=O (single isomer, unassigned) [Z66-1] | 94.8 nM | –
10.3 nM | 42.6 nM | 9.6 nM | 37.3 nM | CCOC[C@]1(C)Nc2c(cnc3[nH]cc(C(=O)c4ccc(Oc5ccccc5)cc4Cl)c23)NC1=O (single isomer, unassigned) [Z67-1] | 161 nM | –
8.3 nM | 40.3 nM | 8.5 nM | 32.3 nM | COC[C@@]1(C)Nc2c(cnc3[nH]cc(C(=O)c4ccc(Oc5ccccc5)cc4F)c23)NC1=O (single isomer, unassigned) [Z71-1] | – | 180 nM
14.5 nM | 58 nM | 22.8 nM | 23.5 nM | CC1(CO)Nc2c(cnc3[nH]cc(C(=O)c4ccc(Oc5ccccc5)cc4Cl)c23)NC1=O (stereo not drawn) [Z9, 9-(2-chloro-4-phenoxybenzoyl)-2-(hydroxymethyl)-2-methyl-1,2,4,7-tetrahydro-3H-pyrrolo[3′,2′:5,6]pyrido[3,4-b]pyrazin-3-one] | 232 nM | –
9.8 nM | 42.2 nM | 11.4 nM | 36.2 nM | COC[C@]1(C)Nc2c(cnc3[nH]cc(C(=O)c4ccc(Oc5ccccc5)cc4Cl)c23)NC1=O [Z13-1] | – | 37.9 nM
5.1 nM | 27.6 nM | 7.6 nM | 31.5 nM | O=C(c1ccc(Oc2ccccc2)cc1Cl)c1c[nH]c2ncc3c(c12)NC1(CCOCC1)C(=O)N3 [Z14] | – | 57 nM
17.4 nM | 119 nM | 10.2 nM | 68.3 nM | COCC[C@]1(C)Nc2c(cnc3[nH]cc(C(=O)c4ccc(Oc5ccccc5)cc4Cl)c23)NC1=O [Z78-2] | – | 254 nM
15.5 nM | 36.1 nM | 11.8 nM | 16.5 nM | COC[C@]1(C)Nc2c(cnc3[nH]cc(C(=O)c4ccc(Oc5nccc(C)c5F)cc4Cl)c23)NC1=O [Z132, 9-(2-chloro-4-((3-fluoro-4-methylpyridin-2-yl)oxy)benzoyl)-2-(methoxymethyl)-2-methyl-4,7-dihydro-1H-pyrrolo[3′,2′:5,6]pyrido[3,4-b]pyrazin-3(2H)-one] | 133 nM | –
7.6 nM | 114 nM | 6.7 nM | 80.5 nM | COC[C@]1(C)Nc2c(cnc3[nH]cc(C(=O)c4ccc(Oc5ccccn5)cc4Cl)c23)NC1=O [Z136, (S)-9-(2-chloro-4-(pyridin-2-yloxy)benzoyl)-2-(methoxymethyl)-2-methyl-1,2,4,7-tetrahydro-3H-pyrrolo[3′,2′:5,6]pyrido[3,4-b]pyrazin-3-one] | 178 nM | –
10.3 nM | 49.4 nM | 12.9 nM | 50.1 nM | CN(C)C1CCC2(C1)Nc1c(cnc3[nH]cc(C(=O)c4ccc(Oc5ccccc5)cc4Cl)c13)NC2=O (stereo not drawn) [Z137] | – | 139 nM
5.1 nM | 22.4 nM | 11.5 nM | 20.5 nM | O=C(c1ccc(Oc2ccccc2)cc1Cl)c1c[nH]c2ncc3c(c12)NC1(CCC(N2CCOCC2)C1)C(=O)N3 (stereo not drawn) [Z141, 9′-(2-chloro-4-phenoxybenzoyl)-3-morpholino-4′,7′-dihydrospiro[cyclopentane-1,2′-pyrrolo[3′,2′:5,6]pyrido[3,4-b]pyrazin]-3′(1′H)-one] | 58.4 nM | –
13.2 nM | 33 nM | 23.5 nM | 19.3 nM | [2H]C([2H])([2H])[C@@]1(COC)Nc2c(cnc3[nH]cc(C(=O)c4ccc(Oc5ccccc5)cc4Cl)c23)NC1=O [Z149, (S)-9-(2-chloro-4-phenoxybenzoyl)-2-(methoxymethyl)-2-(methyl-d3)-1,2,4,7-tetrahydro-3H-pyrrolo[3′,2′:5,6]pyrido[3,4-b]pyrazin-3-one] | 130 nM | –
10.6 nM | 48.2 nM | 8.6 nM | 28 nM | COC[C@]1(C)Nc2c(cnc3[nH]cc(C(=O)c4ccc(Oc5ccccc5F)cc4Cl)c23)NC1=O [Z155, (S)-9-(2-chloro-4-(2-fluorophenoxy)benzoyl)-2-(methoxymethyl)-2-methyl-1,2,4,7-tetrahydro-3H-pyrrolo[3′,2′:5,6]pyrido[3,4-b]pyrazin-3-one] | 87 nM | –
21.5 nM | 27.5 nM | 16.8 nM | 16.7 nM | [2H]C([2H])([2H])OC[C@]1(C)Nc2c(cnc3[nH]cc(C(=O)c4ccc(Oc5ccccc5F)cc4Cl)c23)NC1=O [Z160, (S)-9-(2-chloro-4-(2-fluorophenoxy)benzoyl)-2-((methoxy-d3)methyl)-2-methyl-1,2,4,7-tetrahydro-3H-pyrrolo[3′,2′:5,6]pyrido[3,4-b]pyrazin-3-one] | 108 nM | –
12.5 nM | 39.2 nM | 10.6 nM | 17 nM | [2H]C([2H])([2H])OC[C@]1(C([2H])([2H])[2H])Nc2c(cnc3[nH]cc(C(=O)c4ccc(Oc5ccccc5)cc4Cl)c23)NC1=O [Z161, (S)-9-(2-chloro-4-phenoxybenzoyl)-2-((methoxy-d3)methyl)-2-(methyl-d3)-1,2,4,7-tetrahydro-3H-pyrrolo[3′,2′:5,6]pyrido[3,4-b]pyrazin-3-one] | 72.8 nM | –
6.6 nM | 7.26 nM | 4.5 nM | 3.98 nM | COC[C@]1(C)Nc2c(cnc3[nH]cc(C(=O)c4ccc(Oc5c(F)cccc5OC)cc4Cl)c23)NC1=O [Z168, (S)-9-(2-chloro-4-(2-fluoro-6-methoxyphenoxy)benzoyl)-2-(methoxymethyl)-2-methyl-1,2,4,7-tetrahydro-3H-pyrrolo[3′,2′:5,6]pyrido[3,4-b]pyrazin-3-one] | 22.4 nM | –
9 nM | 20.1 nM | 8.5 nM | 10.2 nM | COC[C@]1(C)Nc2c(cnc3[nH]cc(C(=O)c4ccc(Oc5cc(F)ccc5OC)cc4Cl)c23)NC1=O [Z169, (S)-9-(2-chloro-4-(5-fluoro-2-methoxyphenoxy)benzoyl)-2-(methoxymethyl)-2-methyl-1,2,4,7-tetrahydro-3H-pyrrolo[3′,2′:5,6]pyrido[3,4-b]pyrazin-3-one] | 46.9 nM | –
